Among the data in ChEMBL document CHEMBL1153889, “Psammaplin A as a general activator of cell-based signaling assays via HDAC inhibition and studies on some bromotyrosine derivatives” (Bioorg Med Chem, 2009) are Activity values, retold here.

The target of experiment [1] is Protein Wnt-3a (Mus musculus) (UniProt P27467). The experiment is described as follows: Activation of mouse Wnt3a signaling expressed in HEK293 STF cells assessed as increase in transcriptional activity after 24 hrs by luciferase reporter gene-based lactate dehydrogenase assay. The experiment is classed as cell-based. A general note: In a reporter assay the amount or activity of a reporter protein is the signal.

The subject of the next experiment is HEK293. The experiment in a line: Activation of Neuropeptide S receptor I107 mutant expressed in HEK293 cells assessed as increase in transcriptional activity after 24 hrs by luciferase reporter gene-based lactate dehydrogenase assay. Type of experiment: cell-based.

Structures are written as SMILES. The source made the active and inactive calls. No cut-off for these calls is given here.

Sequence of Protein Wnt-3a (Mus musculus) (P27467 whole entry): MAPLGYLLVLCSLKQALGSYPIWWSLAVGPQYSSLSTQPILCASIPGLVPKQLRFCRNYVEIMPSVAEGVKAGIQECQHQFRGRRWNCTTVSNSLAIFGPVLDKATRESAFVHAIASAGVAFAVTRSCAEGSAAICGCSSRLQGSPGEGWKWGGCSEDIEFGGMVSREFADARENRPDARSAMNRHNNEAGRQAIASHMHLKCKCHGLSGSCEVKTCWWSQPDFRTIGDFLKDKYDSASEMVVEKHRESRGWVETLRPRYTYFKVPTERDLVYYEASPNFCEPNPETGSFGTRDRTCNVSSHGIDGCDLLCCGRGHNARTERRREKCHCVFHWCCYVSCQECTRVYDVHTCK

On to `CC(/C=C/C(=O)NO)=C\[C@@H](C)C(=O)c1ccc(N(C)C)cc1`, for which, in experiment [1], the outcome was Active.

For the compound `O=C(NCCSSCCNC(=O)/C(Cc1ccc(O)c(Br)c1)=N/O)/C(Cc1ccc(O)c(Br)c1)=N/O`, the result (in experiment [1]; in the experiment with HEK293) was Active.

For the compound `O=C(CCCCCCC(=O)Nc1ccccc1)NO`, the outcome in experiment [1] was Active.

On to `Nc1ccccc1NC(=O)c1ccc(CNC(=O)OCc2cccnc2)cc1`, for which the result in experiment [1] was Active.
